Measurements published in patent US10617755B2, “Combination therapy for the treatment of glioblastoma” (Genentech, Inc., priority 2013, dated 2020).

Key:
[1] = test system: newly diagnosed glioblastoma; test: AvaGlio Phase III trial: bevacizumab plus temozolomide and radiotherapy versus placebo plus temozolomide and radiotherapy; assay type: in vivo, human; details: for OS hazard ratio (HR), multivariate Cox proportional hazard model: adjusted for prognostic covariates; for OS benefit, multivariate analysis (result in words): known prognostic covariates considered
Source text: The AvaGlio trial evaluated the efficacy and safety of bevacizumab in combination temozolomide and radiotherapy for newly diagnosed glioblastoma. This study was designed as a prospective, randomized, double blind, placebo controlled Phase III evaluation of bevacizumab plus chemotherapy versus chemotherapy alone. To be eligible, patients must have had newly diagnosed glioblastoma with a tissue diagnosis that has been established following either a surgical resection or biopsy. By adding bevacizumab to chemotherapy and radiotherapy, the AvaGlio trial aimed to improve overall survival (OS) and progression-free survival (PFS) for this group of patients who had limited therapeutic options and faced a particularly poor prognosis. The primary objective was to compare OS and PFS of patients randomized to temozolomide (TMZ) and radiotherapy only or to temozolomide and radiotherapy plus bevacizumab.
This trial consisted of three phases (Concurrent, Maintenance, and Monotherapy) and two (2) treatment arms: TMZ and radiotherapy (RT) (Arm 1), and TMZ and RT plus bevacizumab (Arm 2). Patients were randomly assigned (1:1) to either arm.
Arm 1 (chemotherapy and radiotherapy alone): Eligible patients received 2 Gy RT 5 days a week for 6 weeks and 75 mg/m^2 TMZ orally daily for 6 weeks from the first day to the last day of RT in combination with 10 mg/kg placebo i.v. every 2 weeks. After a 4-week treatment break, eligible patients received 6 cycles of 150-200 mg/m^2 TMZ on days 1-5 of an every-4-week schedule in combination with 10 mg/kg placebo i.v. every 2 weeks. TMZ was administered orally starting with a 150 mg/m^2 dose that could be escalated. Placebo monotherapy (15 mg/kg every 3 weeks) was then continued until disease progression. Upon disease progression, patients were treated at the investigator's discretion.
Arm 2 (chemotherapy and radiotherapy plus bevacizumab): Eligible patients received 2 Gy RT 5 days a week for 6 weeks and 75 mg/m^2 TMZ orally daily for 6 weeks from the first day to the last day of RT in combination with 10 mg/kg bevacizumab i.v. every 2 weeks. After a 4-week treatment break, eligible patients received 6 cycles of 150-200 mg/m^2 TMZ on days 1-5 of an every-4-week schedule in combination with 10 mg/kg bevaciumab i.v. every 2 weeks. TMZ was administered orally starting with a 150 mg/m^2 dose that could be escalated. Bevaciazumab monotherapy (15 mg/kg every 3 weeks) was then continued until disease progression. Upon disease progression, patients were treated at the investigator's discretion.
The initial bevacizumab infusion was over 90 minutes, with subsequent infusions over 60 minutes and then 30 minutes, as tolerated. Bevacizumab was administered on the last day of RT and TMZ treatment, i.e., the day before the start of the TMZ treatment break.
Analyses of PFS were based on tumor assessments MacDonald Response Criteria (modified WHO criteria) using MRI of the brain and a neurological evalution as described in Macdonald et al. (J. Clin. Oncol. 8: 1277-80, 1990). Tumor assessments were performed at baseline, at the end of the 4-week treatment break, then every 8 weeks.
Next, we classified the 349 samples from the AvaGlio trial for which biomarkers could be evaluated into the gene expression subtypes defined by Phillips (Cancer Cell. 9(3): 157-173, 2006).
Samples were analyzed with the same Nanostring probe set used to derive the subtype-specific centroids and expression scores for the same genes were obtained using the same technology and probe sequences. Of the 349 samples, 10 samples from patients carrying mutation(s) in the isocitrate dehydrogenase 1 (IDH1) gene, known to be associated with good prognoses, were excluded from this analysis. Of the remaining 339 IDH1 wild-type samples, raw Nanostring counts were log 2 transformed and the mean expression and standard deviation across all samples was adjusted to the same reference values applied to the training set of Example 2 above. […]

[2] = test system: newly diagnosed glioblastoma; test: as above; assay type: in vivo, human; details: known prognostic covariates considered

bevacizumab: recombinant humanized anti-VEGF monoclonal antibody generated according to Presta et al.; VL SEQ ID NO: 1, VH SEQ ID NO: 2
OS hazard ratio (HR), multivariate Cox proportional hazard model ([1]; PN subtype (Phillips), IDH1 wild-type, 95% CI 0.24-0.72, p=0.002): 0.42
extension of median OS in the treatment arm relative to the placebo arm ([1]; PN subtype (Phillips), n=99): about 4.9 months
PFS hazard ratio (HR), treatment arm relative to placebo arm ([1]; PN subtype (Phillips), n=99, 95% CI 0.37-0.9, p=0.015): 0.58
OS hazard ratio (HR), treatment arm relative to placebo arm ([1]; PN subtype (Phillips), n=99, 95% CI 0.4-0.99, p=0.043): 0.63
median OS in the treatment arm ([1]; PN subtype (Phillips), placebo arm 12.2 months): 17.1 months
OS benefit, multivariate analysis (result in words) ([1]; Phillips-classified PN subtype): statistically significant benefit in extending OS
OS benefit, multivariate analysis (result in words) ([1]; Phillips-classified non-PN subtype): do not show significant OS benefit
extension of median PFS in the treatment arm relative to the placebo arm ([1]; Phillips-classified proneural (PN) subtype, IDH1 wild-type, n=99): about 4.3 months
increase in median progression-free survival (PFS) compared to the placebo arm ([1]; all patients, treatment arm (RT/TMZ/bevacizumab) vs placebo arm): about 4.4 months
median overall survival (OS), difference between arms ([1]; all patients, treatment arm vs placebo arm): not significantly different between arms
OS hazard ratio (HR), multivariate Cox proportional hazard model ([1]; non-PN subtype (Phillips), 95% CI 0.76-1.39, p=0.863): 1.03
PFS and OS improvement (result in words) ([1]; patients having glioblastoma of the PN type): significant PFS and OS improvement
OS benefit, multivariate analysis (result in words) ([2]; TCGA-classified PN subtype): significant OS benefit
OS benefit, multivariate analysis (result in words) ([2]; TCGA-classified non-PN subtype): do not show significant OS benefit
